Reference: patent US10221163B2 (priority 2015, dated 2019)
Read-outs that look alike come from different tables or passages of the source.

Assays:
[1] = system: Pseudomonas aeruginosa efflux+ (MB9798), IMP-1; assay type: cell-based; details: concentration restoring susceptibility to imipenem at 2 μg/mL in the presence of a class A, C, D serine β-lactamase inhibitor closely related to relebactam
In short: (§1)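 PAO1 pair, broth microdilution; fixed β-lactam (imipenem/ceftazidime) at ~CLSI breakpoint + fixed class A/C BLI for AmpC; serial MBLi titration; endpoint = MBLi conc. restoring susceptibility; MB9798:MB9799 ratio = efflux liability.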

[2] = system: Escherichia coli expressing NDM-1 (CLB30005, CLB30016); assay type: cell-based; details: NDM-1 strain, with imipenem 1 μg/ml, 95% inhibition of growth
In short: (§2)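 Colonies grown overnight on blood agar at 35° C were suspended in saline, diluted 1:100 into 1.1×CAMHB and dispensed. Imipenem was added to 1 μg/ml, then test compound. After 22 hours to 24 hours at 35° C, absorbance was recorded.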

[3] = system: Serratia marcescens expressing IMP-1 (CL5741); assay type: cell-based; details: IMP-1 strain CL5741, with imipenem 1 μg/ml, 95% inhibition of growth
In short: as §2

[4] = system: Klebsiella pneumoniae expressing VIM-1 (IHMA599644); assay type: cell-based; details: VIM-1 strain IHMA599644, with imipenem 1 μg/ml, 95% inhibition of growth
In short: as §2

[5] = system: Pseudomonas aeruginosa MB9798 vs MB9799; details: ratio MITC95 PA_9798/MITC95 PA_9799
In short: as §1

IMP-1 = IMP-1 (Serratia marcescens, UniProt P52699); assay: biochemical; assay type: biochemical; details: fluorescence assay, CCF2-FA substrate, 2 pM enzyme, 2 hours at 25° C.; read-out: IMP-1 IC50
Sequence of IMP-1 (P52699 whole entry, looked up, species assumed): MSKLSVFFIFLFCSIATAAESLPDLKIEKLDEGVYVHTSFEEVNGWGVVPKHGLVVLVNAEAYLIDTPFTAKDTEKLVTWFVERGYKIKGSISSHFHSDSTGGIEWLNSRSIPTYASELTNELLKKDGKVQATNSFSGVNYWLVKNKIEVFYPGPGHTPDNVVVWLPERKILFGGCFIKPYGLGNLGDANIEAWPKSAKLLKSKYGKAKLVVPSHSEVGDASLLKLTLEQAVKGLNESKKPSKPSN
In short: (§3)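 Fluorescence assay, CCF2-FA substrate (cephalosporin core linking 7-hydroxycoumarin to fluorescein); inhibitor + MBL + substrate, 2 h, 25° C. IC50 by 4-parameter fit, semi-log plot.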

NDM-1 = NDM-1 (Klebsiella pneumoniae, UniProt C7C422); assay: biochemical; assay type: biochemical; details: fluorescence assay, CCF2-FA substrate, 1 pM enzyme, 2 hours at 25° C.; read-out: NDM-1 IC50
Sequence of NDM-1 (C7C422 whole entry, looked up, species assumed): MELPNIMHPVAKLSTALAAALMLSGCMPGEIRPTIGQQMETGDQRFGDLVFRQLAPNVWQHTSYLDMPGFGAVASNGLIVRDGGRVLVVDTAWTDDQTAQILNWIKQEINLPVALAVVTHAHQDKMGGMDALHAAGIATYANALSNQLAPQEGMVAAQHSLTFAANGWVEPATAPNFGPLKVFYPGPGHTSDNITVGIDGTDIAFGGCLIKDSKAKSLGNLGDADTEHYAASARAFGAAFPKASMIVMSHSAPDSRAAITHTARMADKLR
In short: as §3

VIM-1 = VIM-1 (Pseudomonas aeruginosa (strain ATCC 15692 / DSM 22644 / CIP 104116 / JCM 14847 / LMG 12228 / 1C / PRS 101 / PAO1), UniProt A0A0F7KYQ8); assay: biochemical; details: CCF2-FA substrate, 30 pM enzyme, 2 hours at 25° C.
In short: as §3

[6] = system: Pseudomonas aeruginosa efflux− (MB9799), IMP-1; assay type: cell-based; details: concentration restoring susceptibility to imipenem at 2 μg/mL in the presence of a class A, C, D serine β-lactamase inhibitor closely related to relebactam
In short: as §1

[7] = fluorescence assay, read-out: VIM-1 IC50

SMILES | P. aeruginosa expressing IMP-1, efflux + (MB9798) MITC95 [1] [µM] | Escherichia coli MITC95 [2] [µM] | Serratia marcescens MITC95 [3] [µM] | Klebsiella pneumoniae MITC95 [4] [µM] | Efflux ratio [5] | IC50 (IMP-1) [nM] | IC50 (NDM-1) [nM] | IC50 (VIM-1; VIM-1 IC50, fluorescence assay) [nM] | P. aeruginosa expressing IMP-1, efflux − (MB9799) MITC95 [6] [µM] | IC50 (VIM-1; [7]) [nM]
NCCNS(=O)(=O)c1ccc(-c2cccc3[nH]c([C@H](N)CO)nc23)c(-c2nn[nH]n2)c1S(N)(=O)=O [Example 330, (S)-4-(2-(1-amino-2-hydroxyethyl)-1H-benzo[d]imidazol-4-yl)-N1-(2-aminoethyl)-3-(2H-tetrazol-5-yl)benzene-1,2-disulfonamide] | 1.563 | 3.125 | 1.563 | 3.125 | 1.00 | 2.76 | 0.294 | 0.308 | 1.563 | –
NCCNS(=O)(=O)c1ccc(-c2cccc3[nH]c([C@@H](N)CO)nc23)c(-c2nn[nH]n2)c1S(N)(=O)=O [Example 331, (R)-4-(2-(1-amino-2-hydroxyethyl)-1H-benzo[d]imidazol-4-yl)-N1-(2-aminoethyl)-3-(2H-tetrazol-5-yl)benzene-1,2-disulfonamide] | 1.563 | 1.563 | 3.125 | 3.125 | 1.00 | 2.28 | 0.228 | 0.18 | 1.563 | –
NCCNS(=O)(=O)c1ccc(-c2cccc(C(=O)NC[C@@H](N)CO)c2N)c(-c2nn[nH]n2)c1S(N)(=O)=O [Example 332] | 1.563 | 1.563 | 1.563 | 3.125 | 1.00 | 3 | 0.661 | – | 1.563 | 0.23
NCCNS(=O)(=O)c1ccc(-c2cccc(C(=O)NC[C@H](N)CO)c2N)c(-c2nn[nH]n2)c1S(N)(=O)=O [Example 333, (S)-2-amino-N-(2-amino-3-hydroxypropyl)-4′-(N-(2-aminoethyl)sulfamoyl)-3′-sulfamoyl-2′-(2H-tetrazol-5-yl)-[1,1′-biphenyl]-3-carboxamide] | 1.563 | 1.563 | 1.563 | 3.125 | 1.00 | 3.21 | 1.01 | – | 1.563 | 0.472
NCCNC(=O)c1cccc(-c2ccc(S(=O)(=O)NCCN)c(S(N)(=O)=O)c2-c2nn[nH]n2)c1 [Example 334, N-(2-aminoethyl)-4′-(N-(2-aminoethyl)sulfamoyl)-3′-sulfamoyl-2′-(2H -tetrazol-5-yl)-[1,1′-biphenyl]-3-carboxamide] | 1.563 | 0.3906 | 0.7813 | 0.7813 | 2.00 | 4.6 | 1.32 | – | 0.7813 | 0.247
NCCNS(=O)(=O)c1ccc(-c2cccc3[nH]c([C@H](N)CN)nc23)c(-c2nn[nH]n2)c1S(N)(=O)=O [Example 335, (R)—N1-(2-aminoethyl)-4-(2-(1,2-diaminoethyl)-1H-benzo[d]imidazole-4-yl)-3-(2H-tetrazol-5-yl)benzene-1,2-disulfonamide] | 3.125 | 1.563 | 3.125 | 3.125 | 2.00 | 4.78 | 0.459 | – | 1.563 | 0.287
NCCNS(=O)(=O)c1ccc(-c2cccc3[nH]c([C@@H](N)CN)nc23)c(-c2nn[nH]n2)c1S(N)(=O)=O [Example 336, (S)—N1-(2-aminoethyl)-4-(2-(1,2-diaminoethyl)-1H-benzo[d]imidazol-4-yl)-3-(2H-tetrazol-5-yl)benzene-1,2-disulfonamide] | 3.125 | 1.563 | 3.125 | 3.125 | 2.00 | 2.9 | 0.325 | – | 1.563 | 0.233
NCCNS(=O)(=O)c1ccc(-c2cccc3[nH]c(CCN)nc23)c(-c2nn[nH]n2)c1S(N)(=O)=O [Example 337, N1-(2-aminoethyl)-4-(2-(2-aminoethyl)-1H-benzo[d]imidazol-4-yl)-3-(2H-tetrazol-5-yl)benzene-1,2-disulfonamide] | 0.7813 | 0.7813 | 0.7813 | 0.7813 | 2.00 | 2.23 | 0.208 | – | 0.3906 | 0.2
NCCNS(=O)(=O)c1ccc(C2=CC(N)CCC2)c(-c2nn[nH]n2)c1S(N)(=O)=O (stereo not drawn) [Example 338, 5′-Amino-N4-(2-aminoethyl)-2-(2H-tetrazol-5-yl)-2′,3′,4′,5′-tetrahydro-[1,1′-biphenyl]-3,4-disulfonamide] | 6.25 | 1.563 | 1.563 | 1.563 | 4.00 | 91 | 37.6 | – | 1.563 | 6.42
N[C@H]1C=C(c2ccc(S(=O)(=O)N[C@@H]3CCNC3)c(S(N)(=O)=O)c2-c2nn[nH]n2)CCC1 [Example 339, (R)-5′-amino-N4-((R)-pyrrolidin-3-yl)-2-(2H-tetrazol-5-yl)-2′,3′,4′,5′-tetrahydro-[1,1′-biphenyl]-3,4-disulfonamide] | 6.25 | 0.7813 | 1.563 | 0.7813 | 4.00 | 34.1 | 11.9 | 2.1 | 1.563 | –
N[C@@H]1C=C(c2ccc(S(=O)(=O)N[C@@H]3CCNC3)c(S(N)(=O)=O)c2-c2nn[nH]n2)CCC1 [Example 340, (S)-5′-amino-N4-((R)-pyrrolidin-3-yl)-2-(2H-tetrazol-5-yl)-2′,3′,4′,5′-tetrahydro-[1,1′-biphenyl]-3,4-disulfonamide] | 6.25 | 0.3906 | 1.563 | 0.7813 | 4.00 | 46.7 | 6.29 | 2.89 | 1.563 | –
NCCCNC(=O)c1cccc(-c2ccc(S(=O)(=O)NCCN)c(S(N)(=O)=O)c2-c2nn[nH]n2)c1 [Example 341, 4′-(N-(2-aminoethyl)sulfamoyl)-N-(3-aminopropyl)-3′-sulfamoyl-2′-(2H-tetrazol-5-yl)-[1,1′-biphenyl]-3-carboxamide] | 1.563 | 0.7813 | 1.563 | 3.125 | 2.00 | 4.13 | 1.71 | – | 0.7813 | 0.474
NCCNS(=O)(=O)c1ccc(C2CCC[C@H](N)C2)c(-c2nn[nH]n2)c1S(N)(=O)=O (stereo partly drawn) [Example 342, 4-((3S)-3-aminocyclohexyl)-N1-(2-aminoethyl)-3-(2H-tetrazol-5-yl)benzene-1,2-disulfonamide] | 25 | 1.563 | 3.125 | 1.563 | 4.00 | 88.7 | 32.7 | 5.31 | 6.25 | –
